Test results reported in patent publication US10238631B2, “Sesquiterpene derivatives and their use in inflammation or cancer treatment” (Academia Sinica, priority 2014, dated 2019).
Where two headings read alike, the source gives them in different places.

Legend:
[1] = test system: Melanocyte (Normal cells); assay: MTT cell viability assay, normal melanocytes; assay type: cell-based, human; conditions: Homo sapiens, Melanocyte, 24 h
Description: (§1) Normal or cancer cells (2×10^3 to 1×10^4 cells/well) were seeded in 96-well plate for overnight and treated with different compounds for 24 h to 72 h. Cells growth were determined by MTT-based colorimetric assays according to. Viability of the test cells treated with vehicle (0.5% DMSO) only was defined as 100% viable. Survival of cells after treatment with DETDs was calculated using the following formula: viable cell number (%)=OD570 (treated cell culture)/OD570 (vehicle control)×100.
(§2) Several genes are involved in melanoma development and pathology; specifically, mutation in V-raf murine sarcoma viral oncogene homolog B1 (B-RAF) occurs approximately 50-60% and in neuroblastoma RAS viral oncogene homolog (N-RAS) occurs about 30% of malignant melanomas. A spectrum of wild-type or mutated melanoma cell lines including B16-F10, MeWo, A375, A2058, HTB-68, and melanocyte were used to study anti-melanoma cell proliferation activity of parental phytocompound DET and newly synthesized DETDs.

[2] = test system: LPS-induced nitric oxide (NO) production in RAW 264.7 cells; assay: Nitric oxide production in LPS-stimulated macrophages (Griess); assay type: cell-based, mouse; conditions: Mus musculus; LPS-stimulated RAW264.7, nitrite 24 h after LPS
Description: (§3) Marcophages (2×10^5 cells/well in 96-well plate) were treated with compounds for 1 h, then incubated further for 24 h with or without the presence of […] LPS in the cultural medium. Nitrite levels in cell culture medium were determined by the Griess reaction method. In parallel to the Griess assays, macrophage cell viabilities were determined using the MTT based colorimetric assay.
LPS from the outer membrane of Gram-negative bacteria can induce mRNA or protein levels of inducible nitric oxide synthase (iNOS), which catalyzes oxidative deamination of L-arginine to produce nitric oxide (NO). Once NO is predominantly produced, it interacts with superoxide anion and generates highly reactive oxidants resulting in cellular inflammation, DNA, protein and tissue damages, carcinogenesis, and antiapoptosis. We used in vitro LPS stimulated inflammation in RAW264.7 cell system to evaluate the effect of DET and its derivatives DETDs on NO production by determination of nitrite level (equivalent to NO level) in culture medium 24 h after LPS treatment.

HTB-68 (NRAS mutation) = assay: MTT cell viability assay, HTB-68 melanoma; assay type: cell-based, human; conditions: Homo sapiens, 24 h
Description: as §1, §2

A2058 (BRAF mutation) = assay: MTT cell viability assay, A2058 melanoma; assay type: cell-based, human; conditions: Homo sapiens, A2058, 24 h
Description: as §1, §2

B16-F10 (NRAS mutation) = assay: MTT cell viability assay, B16-F10 melanoma; assay type: cell-based; conditions: Mus musculus, B16-F10, 24 h, read-out: IC50 on cell viability, B16-F10 (NRAS mutation)
Description: as §1, §2

[3] = test system: MeWo (No NRAS or BRAF mutation); assay: MTT cell viability assay, MeWo melanoma; assay type: cell-based, human; conditions: Homo sapiens, MeWo, 24 h
Description: as §1, §2

[4] = test system: TS/A (ER+, Her2−) murine mammary cancer cells; assay: MTT cell viability assay, TS/A cells; assay type: cell-based; conditions: Mus musculus, 24 h, read-out: IC50 on cell viability, TS/A (ER+, Her2−)
Description: as §1
(§4) Sixty DETDs were derived from parental compound […] and tested for anti-breast cancer cell activity.

[5] = test system: MCF-7 (ER+, Her2−) human breast cancer cells; assay: MTT cell viability assay, MCF-7 cells; assay type: cell-based; conditions: MCF7, 24 h, read-out: IC50 on cell viability, MCF-7 (ER+, Her2−)
Description: as §1, §4

[6] = test system: M10 normal mammary epithelial cells; assay: MTT cell viability assay, M10 normal cells; assay type: cell-based, human; conditions: Homo sapiens, Epithelial cell, 24 h
Description: as §1, §4

[7] = test system: RAW264.7 (normal macrophage); assay: MTT cell viability assay, RAW264.7 macrophages; assay type: cell-based, mouse; conditions: Mus musculus, RAW264.7, 24 h
Description: as §1, §3

A375 (BRAF mutation) = assay: MTT cell viability assay, A375 melanoma; assay type: cell-based, human; conditions: Homo sapiens, A-375, 24 h, read-out: IC50 on cell viability, A375 (BRAF mutation)
Description: as §1, §2
To investigate whether or not DETD-35 show synergism with PLX4032 against A375 melanoma cells, we performed anti-proliferation assay using MTT reagent to obtain IC50 of each compound. […] The synergistic effect was quantified by combination index (CI) analysis as stated above.

[8] = test system: MDA-MB-231 (ER−, PR−, Her2−) human breast cancer cells; assay: MTT cell viability assay, MDA-MB-231 cells; assay type: cell-based; conditions: Homo sapiens, MDA-MB-231, 24 h, read-out: IC50 on cell viability, MDA-MB-231 (ER−, PR−, Her2−)
Description: as §1, §4

Row | Structure (SMILES) | IC50 [2] [µM] | IC50 (HTB-68 (NRAS mutation)) [µM] | IC50 (A2058 (BRAF mutation)) [µM] | IC50 (B16-F10 (NRAS mutation); 24 h) [µM] | IC50 [3] [µM] | IC50 [4] [µM] | IC50 [5] [µM] | IC50 (A375 (BRAF mutation); 24 h, MTT) [µM] | IC50 [8] [µM] | IC50 [1] [µM] | IC50 [6] [µM] | IC50 [7] [µM] | IC50 (B16-F10 (NRAS mutation)) [µM] | IC50 (A375 (BRAF mutation)) [µM]
1 | C=C1C(=O)OC2CC3=C[C@@H](C/C(C)=C/C(OC(=O)C(C)CCC)[C@H]12)OC3=O (stereo partly drawn) [DETD-20] | 4.2 | > 10 | > 10 | 9 | > 10 | 2.2 | 3.5 | > 10 | 5.8 | > 10 | > 7.5 | > 10 |  | 
2 | C=C1C(=O)OC2CC3=C[C@@H](C/C(C)=C/C(OC(=O)C(CC)CCCC)[C@H]12)OC3=O (stereo partly drawn) [DETD-21] | 4.7 | > 10 | > 10 | > 10 | > 10 | 4 | 4.5 | > 10 | > 7.5 | > 10 | > 7.5 | > 10 |  | 
3 | C=C1C(=O)OC2CC3=C[C@@H](C/C(C)=C/C(OC(=O)/C=C/CC)[C@H]12)OC3=O (stereo partly drawn) [DETD-25] | 4.9 | > 10 | > 10 | > 10 | > 10 | 4 | 5.8 | > 10 | > 7.5 | > 10 | > 7.5 | > 10 |  | 
4 | C=C1C(=O)OC2CC3=C[C@@H](C/C(C)=C/C(OC(=O)/C=C/c4cccs4)[C@H]12)OC3=O (stereo partly drawn) [DETD-42] | 2.9 | > 10 | > 10 |  | > 10 | 2.7 | 4.5 |  | 6 | > 10 | > 7.5 | > 10 | 5.5 | > 10

Second part, led by results:

Row | IC50 [2] [µM] | IC50 (HTB-68 (NRAS mutation)) [µM] | IC50 (A2058 (BRAF mutation)) [µM] | IC50 (B16-F10 (NRAS mutation); 24 h) [µM] | IC50 [3] [µM] | IC50 [4] [µM] | IC50 [5] [µM] | IC50 (A375 (BRAF mutation); 24 h, MTT) [µM] | IC50 [8] [µM] | Structure (SMILES) | IC50 [1] [µM] | IC50 [6] [µM] | IC50 [7] [µM] | IC50 (B16-F10 (NRAS mutation)) [µM] | IC50 (A375 (BRAF mutation)) [µM]
5 | 3.4 | 7.6 | 8.5 | 7.3 | > 10 | 2.2 | > 7.5 | 3.5 | 7 | C=C1C(=O)OC2CC3=C[C@@H](C/C(C)=C/C(OC(=O)Cc4ccc(OC)cc4)[C@H]12)OC3=O (stereo partly drawn) [DETD-44] | > 10 | > 7.5 | > 10 |  | 
6 | > 10 | > 10 | > 10 | > 10 | > 10 | > 7.5 | > 7.5 | 6.9 | 8.2 | C=C1C(=O)OC2CC3=C[C@@H](C/C(C)=C/C(OC(=O)/C=C/c4cccc(C(F)(F)F)c4)[C@H]12)OC3=O (stereo partly drawn) [DETD-48] | > 10 | > 7.5 | > 10 |  | 
7 | > 10 | > 10 | > 10 | > 10 | > 10 | > 7.5 | > 7.5 | 8.3 | > 15 | C=C1C(=O)OC2CC3=C[C@@H](C/C(C)=C/C(OC(=O)/C=C/c4cccc(OC(F)(F)F)c4)[C@H]12)OC3=O (stereo partly drawn) [DETD-47] | > 10 | > 7.5 | > 10 |  | 
8 | 4.5 | > 10 | > 10 | 4.3 | > 10 | 3.1 | 6.1 | > 10 | 4.9 | C=C1C(=O)OC2CC3=C[C@@H](C/C(C)=C/C(OC(=O)c4cc5ccccc5o4)[C@H]12)OC3=O (stereo partly drawn) [DETD-40] | > 10 | > 7.5 | > 10 |  | 
9 | > 10 | 9 | 8.7 | 9.3 | > 10 | > 7.5 | > 7.5 | 5 | 7.4 | C=C1C(=O)OC2CC3=C[C@@H](C/C(C)=C/[C@H](OC(=O)Cc4cccc5ccccc45)[C@H]12)OC3=O (stereo partly drawn) [DETD-62] | > 10 | > 7.5 | > 10 |  | 
